Data on one substance can be found in US20070021325A1, “Drug formulation containing a solubilizer for enhancing solubility, absorption, and permeability” (Mediplex Corporation, priority 2005, published 2007).

This data set can be described thus: Oral absorption of encapsulated DMSO-bound heparin-DOCA in monkeys (FIG. 5). In kind it is in vivo. The settings on record: in buffer, 100 mg/kg (control). The protocol: DMSO-bound heparin-DOCA prepared according to the method of Example 1 was encapsulated and then administered orally to monkeys at either 5 mg/kg or 10 mg/kg dosages. As a control, heparin in buffer was orally administered at 100 mg/kg.

Regarding heparin, the “absorption after oral administration” value was “negligible”.
